The source of these data is patent US11919855B2, “Substituted pyrrolidones and piperidones as small molecule inhibitors of EZH2 and EED protein binding” (Northwestern University, priority 2021, dated 2024).

The target of the assay is EED-EZH2 (Homo sapiens (Human), UniProt O75530). Description: EED-EZH2 AlphaScreen assay. Type of assay: binding. As to conditions: 8.7 nM EZH2, 5.0 nM EED, read-out: IC50 Potency Code. The procedure:
Biological activity of exemplary substituted pyrrolidones and piperidones was determined by the EED-EZH2 AlphaScreen assay according the following methodology.
EZH2 (non-complexed), His-GST-tags
Anti-FLAG AlphaLISA Acceptor Beads
AlphaScreen GSH Donor Beads
Assay Protocol (Calculated for 384 Wells or 1 Plate)
• 1. Thaw EED and EZH2 proteins on ice. • 2. Prepare 1× HMT Buffer 2: • 1.5 mL of 4× HMT Buffer 2+4.5 mL ddH2O. • 3. Prepare 1.2× EED-EZH2 solution in 1× HMT Buffer 2: 3.4 mL total • 2.1 uL of EED (0.41 mg/mL, 8.04 uM, 1:1608 dilution)+14 uL of EZH2 (0.24 mg/mL, 2.11 uM, 1:243 dilution)+3.384 mL of 1× HMT Buffer 2 • 4. Prepare 1.2× EZH2 solution in 1× HMT Buffer 2 (positive control): 0.168 mL total • 0.69 uL of EZH2 (0.24 mg/mL, 2.11 uM, 1:243 dilution)+167 uL of 1× HMT Buffer 2 • 5. Add 10 μL of 1.2× EED-EZH2 or 1.2× EZH2 solution to each well. • 6. Add compounds in DMSO via Echo transfer and 30 nL DMSO for control wells. • 7. Centrifuge at 15,000 rpm for 10 seconds and allow to incubate at rt for 1 hour. Step Two • 1. Prepare 6× Anti-FLAG and GSH Donor beads in 1× HMT Buffer 2 in the dark: 1 mL total • 10 uL of Anti-FLAG (1:100 dilution)+5 uL of GSH Donor (1:200 dilution)+985 uL of 1× HMT Buffer 2 • 2. Add 2 μL of bead solution to each well. • 3. Centrifuge at 15,000 rpm for 10 seconds and allow to incubate at rt for 1 hour in the dark. • 4. Read plate. Final Concentrations: • 12 μL volume per well • 8.7 nM EZH2 • 5.0 nM EED • DMSO<0.5% Calculations: • 1. Average EZH2 only wells (positive control) and subtract from all other wells. • 2. Average EED-EZH2 only wells (negative control) to indicate 100% signal or 0% inhibition. • 3. Normalize each well to the average 100% signal from step 2. • 4. Report either as normalized % inhibition or normalized % signal. • Use GraphPad to Calculate IC50.

Sequence of EED-EZH2 (O75530 2-441): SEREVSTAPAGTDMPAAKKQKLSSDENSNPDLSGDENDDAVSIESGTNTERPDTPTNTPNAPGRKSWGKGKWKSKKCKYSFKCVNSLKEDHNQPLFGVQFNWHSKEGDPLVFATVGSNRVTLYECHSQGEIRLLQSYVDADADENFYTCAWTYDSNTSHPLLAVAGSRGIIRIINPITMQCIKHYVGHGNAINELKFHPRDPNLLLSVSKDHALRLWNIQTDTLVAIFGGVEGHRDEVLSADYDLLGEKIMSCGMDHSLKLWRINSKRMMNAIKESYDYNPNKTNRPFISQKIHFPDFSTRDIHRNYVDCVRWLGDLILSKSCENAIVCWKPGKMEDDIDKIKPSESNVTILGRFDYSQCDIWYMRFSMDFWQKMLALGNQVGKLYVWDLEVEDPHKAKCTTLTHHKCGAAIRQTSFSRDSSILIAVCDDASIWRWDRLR

Usually IC50 stands for the concentration needed to halve the response being measured. Turning to `Cc1ccc(O)c(C(=O)NC2CC(=O)N(Cc3ccccc3C(F)(F)F)C2)c1` (centres unmarked) [NUCC-0163358], the IC50 was 1 to 10 µM.
Take `Cc1ccc(O)c(C(=O)NC2CC(=O)N(Cc3ccccc3[N+](=O)[O-])C2)c1` (centres unmarked) [NUCC-0202653]: the IC50 fell in the range of 1 to 10 µM.
Then `COc1ccc(C)cc1C(=O)NC1CC(=O)N(Cc2ccccc2[N+](=O)[O-])C1` (centres unmarked) [NUCC-0202654], with more than 50 µM; and `COc1cccc(CC(=O)NC2CC(=O)N(Cc3ccccc3[N+](=O)[O-])C2)c1` (centres unmarked) [NUCC-0202655], with more than 50 µM.
Then `Cc1c(C(=O)NC2CC(=O)N(Cc3ccccc3[N+](=O)[O-])C2)cccc1[N+](=O)[O-]` (centres unmarked) [NUCC-0202656], with more than 50 µM.
The same measure for `O=C(NC1CC(=O)N(Cc2ccccc2[N+](=O)[O-])C1)c1cccnc1` (centres unmarked) [NUCC-0202657]: more than 50 µM; for `O=C(O)c1ccccc1C(=O)NC1CC(=O)N(Cc2ccccc2[N+](=O)[O-])C1` (centres unmarked) [NUCC-0202658]: more than 50 µM.
In the case of `N#Cc1cccc(C(=O)NC2CC(=O)N(Cc3ccccc3[N+](=O)[O-])C2)c1` (centres unmarked) [NUCC-0202659], the IC50 was more than 50 µM.
Take `COc1ccc(C)cc1C(=O)NC1CC(=O)N(Cc2ccccc2C(F)(F)F)C1` (centres unmarked) [NUCC-0202660]: the IC50 lay within 10 to 50 µM.
Then `COc1cccc(CC(=O)NC2CC(=O)N(Cc3ccccc3C(F)(F)F)C2)c1` (centres unmarked) [NUCC-0202661], with more than 50 µM.
Then `Cc1c(C(=O)NC2CC(=O)N(Cc3ccccc3C(F)(F)F)C2)cccc1[N+](=O)[O-]` (centres unmarked) [NUCC-0202662], with more than 50 µM; and `O=C(NC1CC(=O)N(Cc2ccccc2C(F)(F)F)C1)c1cccnc1` (centres unmarked) [NUCC-0202663], with more than 50 µM; and `O=C(O)c1ccccc1C(=O)NC1CC(=O)N(Cc2ccccc2C(F)(F)F)C1` (centres unmarked) [NUCC-0202666], with more than 50 µM.
For the molecule `O=C(NC1CC(=O)N(Cc2ccccc2C(F)(F)F)C1)c1cccc(-c2ccccc2)c1` (centres unmarked) [NUCC-0202667], the IC50 is more than 50 µM.
The same measure for `Cc1cccc(C(=O)NC2CC(=O)N(Cc3ccccc3C(F)(F)F)C2)c1` (centres unmarked) [NUCC-0202668]: more than 50 µM; for `O=C(NC1CC(=O)N(Cc2ccccc2C(F)(F)F)C1)c1ccccc1O` (centres unmarked) [NUCC-0202669]: more than 50 µM.
Turning to `O=C(NC1CC(=O)N(Cc2ccccc2C(F)(F)F)C1)c1ccc(Cl)c(Cl)c1` (centres unmarked) [NUCC-0202670], the IC50 is more than 50 µM.
For `O=C(NC1CC(=O)N(Cc2ccccc2C(F)(F)F)C1)c1ccc2cc[nH]c2c1` (centres unmarked) [NUCC-0202671], the IC50 is more than 50 µM.
The same measure for `Cc1ccc(O)c(C(=O)NC2CC(=O)N(Cc3ccc(Cl)c(Cl)c3)C2)c1` (centres unmarked) [NUCC-0202672]: 10 to 50 µM; for `COc1ccc(C)cc1C(=O)NC1CC(=O)N(Cc2ccc(Cl)c(Cl)c2)C1` (centres unmarked) [NUCC-0202673]: more than 50 µM.
The same measure for `O=C(NC1CC(=O)N(Cc2ccc(Cl)c(Cl)c2)C1)c1ccccc1O` (centres unmarked) [NUCC-0202674]: more than 50 µM.
The same measure for `O=C(NC1CC(=O)N(Cc2ccc(Cl)c(Cl)c2)C1)c1cccnc1` (centres unmarked) [NUCC-0202675]: more than 50 µM; for `O=C(O)c1ccccc1C(=O)NC1CC(=O)N(Cc2ccc(Cl)c(Cl)c2)C1` (centres unmarked) [NUCC-0202676]: more than 50 µM.
`O=C(NC1CC(=O)N(Cc2ccc(Cl)c(Cl)c2)C1)c1cccc(-c2ccccc2)c1` (centres unmarked) [NUCC-0202677]: the IC50 is more than 50 µM.
Turning to `Cc1cccc(C(=O)NC2CC(=O)N(Cc3ccc(Cl)c(Cl)c3)C2)c1` (centres unmarked) [NUCC-0202678], the IC50 was more than 50 µM.
Consider `Cc1ccc(O)c(C(=O)N(C)C2CC(=O)N(Cc3ccccc3C(F)(F)F)C2)c1` (centres unmarked) [NUCC-0202747], for which the IC50 is more than 50 µM.
The same measure for `O=C(NC1CC(=O)N(Cc2ccccc2C(F)(F)F)C1)c1cccc2cc[nH]c12` (centres unmarked) [NUCC-0202749, N-(5-oxo-1-(2-(trifluoromethyl)benzyl)pyrrolidin-3-yl)-1H-indole-7-carboxamide]: more than 50 µM.
Take `Cc1ccc(C(=O)NC2CC(=O)N(Cc3ccccc3C(F)(F)F)C2)c(O)c1` (centres unmarked) [NUCC-0202750]: the IC50 is more than 50 µM.
The same measure for `Cc1cccc(C(=O)NC2CC(=O)N(Cc3ccccc3C(F)(F)F)C2)c1O` (centres unmarked) [NUCC-0202751]: more than 50 µM; for `CC(C)(C)c1ccc(O)c(C(=O)NC2CC(=O)N(Cc3ccccc3C(F)(F)F)C2)c1` (centres unmarked) [NUCC-0202752]: more than 50 µM; for `CCc1ccc(O)c(C(=O)NC2CC(=O)N(Cc3ccccc3C(F)(F)F)C2)c1` (centres unmarked) [NUCC-0202753]: more than 50 µM.
The same measure for `Cc1ccc(O)cc1C(=O)NC1CC(=O)N(Cc2ccccc2C(F)(F)F)C1` (centres unmarked) [NUCC-0202754]: more than 50 µM.
Then `O=C(NC1CC(=O)N(Cc2ccccc2C(F)(F)F)C1)c1cnon1` (centres unmarked) [NUCC-0202755], with more than 50 µM.
As for `O=C(Cc1cc2ccccc2[nH]1)NC1CC(=O)N(Cc2ccccc2C(F)(F)F)C1` (centres unmarked) [NUCC-0202756], the IC50 was more than 50 µM.
Then `O=C(NC1CC(=O)N(Cc2ccccc2C(F)(F)F)C1)c1ccnc(Cl)n1` (centres unmarked) [NUCC-0202757], with more than 50 µM; and `O=C(NC1CC(=O)N(Cc2ccccc2C(F)(F)F)C1)c1ccc2ccccc2n1` (centres unmarked) [NUCC-0202758], with more than 50 µM.
Turning to `O=C(NC1CC(=O)N(Cc2ccccc2C(F)(F)F)C1)c1cscn1` (centres unmarked) [NUCC-0202759], the IC50 is more than 50 µM.
Then `O=C(NC1CC(=O)N(Cc2ccccc2C(F)(F)F)C1)c1coc2ccccc12` (centres unmarked) [NUCC-0202760], with more than 50 µM.
Take `O=C(NC1CC(=O)N(Cc2ccccc2C(F)(F)F)C1)c1ccc2ccccc2c1O` (centres unmarked) [NUCC-0202761]: the IC50 was in the range of 10 to 50 µM.
Then `O=C(NC1CC(=O)N(Cc2ccccc2C(F)(F)F)C1)c1ccc(Cl)nc1Cl` (centres unmarked) [NUCC-0202762], with more than 50 µM; and `O=C(NC1CC(=O)N(Cc2ccccc2C(F)(F)F)C1)c1ccccc1F` (centres unmarked) [NUCC-0202763], with more than 50 µM.
The same measure for `Cn1nccc1C(=O)NC1CC(=O)N(Cc2ccccc2C(F)(F)F)C1` (centres unmarked) [NUCC-0202764]: more than 50 µM.
The same measure for `O=C(NC1CC(=O)N(Cc2ccccc2C(F)(F)F)C1)c1ccc(Br)c(O)c1` (centres unmarked) [NUCC-0202765]: more than 50 µM; for `O=C1CC(Nc2n[nH]c3ccccc23)CN1Cc1ccccc1C(F)(F)F` (centres unmarked) [NUCC-0202766]: more than 50 µM; for `O=C(NC1CC(=O)N(Cc2ccccc2C(F)(F)F)C1)c1cc(Cl)nc2ccccc12` (centres unmarked) [NUCC-0202792]: more than 50 µM.
Take `Cc1ccc(N)c(C(=O)NC2CC(=O)N(Cc3ccccc3C(F)(F)F)C2)c1` (centres unmarked) [NUCC-0202793]: the IC50 is more than 50 µM.
The same measure for `Cc1ccc(O)c(C(=O)NC2CC(=O)N(Cc3ccccc3C(F)(F)F)C2)c1` (centres unmarked) [NUCC-0202826]: more than 50 µM.
As for `Cc1cccc(O)c1C(=O)NC1CC(=O)N(Cc2ccccc2C(F)(F)F)C1` (centres unmarked) [NUCC-0202827], the IC50 is more than 50 µM.
On to `Cc1c[nH]c(=O)c(C(=O)NC2CC(=O)N(Cc3ccccc3C(F)(F)F)C2)c1` (centres unmarked) [NUCC-0202828], for which the IC50 was more than 50 µM.
Then `O=C(NC1CC(=O)N(Cc2ccccc2C(F)(F)F)C1)c1cc2ccccc2cc1O` (centres unmarked) [NUCC-0202830], with 10 to 50 µM; and `COc1ccc(O)c(C(=O)NC2CC(=O)N(Cc3ccccc3C(F)(F)F)C2)c1` (centres unmarked) [NUCC-0202831], with 10 to 50 µM.
The same measure for `O=C(NC1CC(=O)N(Cc2ccccc2C(F)(F)F)C1)c1cc(F)ccc1O` (centres unmarked) [NUCC-0202832]: 1 to 10 µM.
The same measure for `O=C(NC1CC(=O)N(Cc2ccccc2C(F)(F)F)C1)c1cc(Cl)ccc1O` (centres unmarked) [NUCC-0202833]: 1 to 10 µM; for `O=C(NC1CC(=O)N(Cc2ccccc2C(F)(F)F)C1)c1cc(Br)ccc1O` (centres unmarked) [NUCC-0202834]: 1 to 10 µM; for `Cc1ccc(O)c(S(=O)(=O)NC2CC(=O)N(Cc3ccccc3C(F)(F)F)C2)c1` (centres unmarked) [NUCC-0202835]: more than 50 µM.
Turning to `CC(C)(CO)C(=O)NC1CC(=O)N(Cc2ccccc2C(F)(F)F)C1` (centres unmarked) [NUCC-0202851], the IC50 is more than 50 µM.
Then `O=C(NC1CC(=O)N(Cc2ccccc2C(F)(F)F)C1)c1cc(I)ccc1O` (centres unmarked) [NUCC-0202852], with 10 to 50 µM.
Then `O=C(NC1CC(=O)N(Cc2ccccc2C(F)(F)F)C1)c1cc(C(F)(F)F)ccc1O` (centres unmarked) [NUCC-0202965], with 1 to 10 µM; and `Cc1ccc(O)c(C(=O)NC2CC(=O)N(Cc3ccccc3C(=O)O)C2)c1` (centres unmarked) [NUCC-0202966], with 1 to 10 µM.
As for `COC(=O)c1ccccc1CN1CC(NC(=O)c2cc(C)ccc2O)CC1=O` (centres unmarked) [NUCC-0202967], the IC50 fell in the range of 1 to 10 µM.
Then `Cc1ccc(O)c(C(=O)NC2CC(=O)N(Cc3ccccc3C(F)(F)F)C2)n1` (centres unmarked) [NUCC-0202968], with more than 50 µM; and `Cc1ccc(O)c(C(=O)Nc2ccc(=O)n(Cc3ccccc3C(F)(F)F)c2)c1` [NUCC-0202969], with more than 50 µM.
